Key:
[1] = target: T1, MAO-A (amine oxidase [flavin-containing] A) (Homo sapiens, UniProt P21397); assay: in vitro; settings: human MAO-A enzyme, probe p-tyramine
T1 sequence (P21397 whole entry): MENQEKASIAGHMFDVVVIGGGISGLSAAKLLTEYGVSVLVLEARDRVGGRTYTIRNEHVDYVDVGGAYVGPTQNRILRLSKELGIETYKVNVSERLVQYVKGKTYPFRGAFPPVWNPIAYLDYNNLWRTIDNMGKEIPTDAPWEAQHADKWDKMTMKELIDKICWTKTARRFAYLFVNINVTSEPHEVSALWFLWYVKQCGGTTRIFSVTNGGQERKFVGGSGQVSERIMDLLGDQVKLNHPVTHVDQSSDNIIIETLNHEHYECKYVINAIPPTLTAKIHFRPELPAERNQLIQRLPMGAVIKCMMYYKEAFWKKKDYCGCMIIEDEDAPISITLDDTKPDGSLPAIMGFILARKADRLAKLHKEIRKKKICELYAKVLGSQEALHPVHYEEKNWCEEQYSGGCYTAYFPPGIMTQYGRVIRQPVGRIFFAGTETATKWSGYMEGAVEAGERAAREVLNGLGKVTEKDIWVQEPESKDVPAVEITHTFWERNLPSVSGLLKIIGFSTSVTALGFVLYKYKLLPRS
Description: Inhibition of human MAO-A using p-tyramine as substrate at 100 uM by amplex red staining based fluorometric analysis relative to control

[2] = target: T2, Amine oxidase [flavin-containing] B (Homo sapiens, UniProt P27338)
T2 sequence (P27338 whole entry): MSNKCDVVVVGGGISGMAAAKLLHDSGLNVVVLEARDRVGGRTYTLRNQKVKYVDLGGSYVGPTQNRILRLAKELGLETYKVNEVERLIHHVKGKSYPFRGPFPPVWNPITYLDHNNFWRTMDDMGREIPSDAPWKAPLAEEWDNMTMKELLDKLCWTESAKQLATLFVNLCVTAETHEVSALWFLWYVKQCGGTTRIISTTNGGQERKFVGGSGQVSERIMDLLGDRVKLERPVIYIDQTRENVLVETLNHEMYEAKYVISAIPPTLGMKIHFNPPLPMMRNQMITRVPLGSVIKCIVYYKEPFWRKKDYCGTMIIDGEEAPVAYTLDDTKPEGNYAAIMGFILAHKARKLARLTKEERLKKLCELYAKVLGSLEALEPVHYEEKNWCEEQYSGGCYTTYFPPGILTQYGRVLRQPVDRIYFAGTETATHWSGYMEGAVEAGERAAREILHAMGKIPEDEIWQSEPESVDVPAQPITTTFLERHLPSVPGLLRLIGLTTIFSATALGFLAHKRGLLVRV
Description: Inhibition of human MAO-B using p-tyramine as substrate by amplex red staining based fluorometric analysis

[3] = target: T3, Amine oxidase [flavin-containing] A (Homo sapiens, UniProt P21397)
T3 sequence (P21397 whole entry): T1 sequence (P21397 whole entry)
Description: Inhibition of human MAO-A using p-tyramine as substrate by amplex red staining based fluorometric analysis

SMILES: COc1ccc(-c2cc3ccc4ccccc4c3oc2=O)cc1
- inhibition at 100 µM [1]: 15.3%

SMILES: COc1ccc(-c2cc3ccc4ccccc4c3oc2=O)cc1OC
- IC50 [2]: 0.241 µM
- inhibition at 100 µM [1]: 24%

SMILES: CC(=O)Oc1ccc(-c2cc3ccc4ccccc4c3oc2=O)cc1OC(C)=O
- IC50 [2]: 13.9 µM
- IC50 [3]: 78.3 µM

SMILES: COc1ccc(-c2cc3cc4ccccc4cc3oc2=O)cc1OC
- IC50 [2]: 1.41 µM
- inhibition at 100 µM [1]: 36.6%

SMILES: CC(=O)Oc1ccc(-c2cc3cc4ccccc4cc3oc2=O)cc1OC(C)=O
- IC50 [2]: 54.4 µM
- IC50 [3]: 97.2 µM

SMILES: COc1ccc(-c2cc3cc4ccccc4cc3oc2=O)cc1
- IC50 [2]: 48.1 µM
- inhibition at 100 µM [1]: 3.85%

Source: ChEMBL document CHEMBL6083238, “Design, synthesis and biological evaluation of novel benzocoumarin derivatives as potent inhibitors of MAO-B activity” (Bioorg Med Chem Lett, 2024)
